Data as given in patent publication US7666885B2, “Enzyme inhibitors” (Consejo Superior de Investigaciones Cientificas, priority 2000, dated 2010).
Read-outs that look alike come from different tables or passages of the source.

Experiments:
GSK-3β = biological target: T1, GSK-3β (Homo sapiens, UniProt P49841); test: GSK-3β inhibition (radiometric, GS 1 peptide); type: biochemical
T1 construct: purchased Sigma
Procedure: GSK-3β inhibition: The GSK-3 activity was determined by incubation of a mixture of GSK-3 enzyme (Sigma), a phosphate source and a GSK-3 substrate in the presence and in the absence of the corresponding test compound, and by measuring the GSK-3 activity of this mixture.
The reaction is quenched by addition of an aliquot of the reaction mixture in phosphocelullose p81 papers. These papers are washed three times with phosphoric acid 1% and the radioactivity incorporated to the GS 1 peptide is measured in a liquid scintillation counter.

N2A cells = test: Cell cycle blockade; type: cell-based, mice; conditions: N2A cell cultures, Table 5
Procedure: In parallel, the potential interference of these compounds with the cell cycle was studied on N2A cells. The cell culture was maintained in a Dulbecco medium (DEMEM) with a 10% fethal bovine serum, glutamine (2 mM) and antibiotics.
The first four compounds of general formula (I) gathered in Table 3 were assayed in the described conditions and shown ability to inhibit the cell cycle at an inhibitor concentration comprised between 100 nM and 1 μM. The cellular blockade was initially observed at concentrations comprised between 100-200 nM and was totally effective at 1 μM.

[1] = GSK-3 enzyme (Sigma), 15 μM ATP, GS 1 peptide, Tables 3, 3a, 4, read-out: IC50
[2] = Tables 4a, 4b, read-out: GSK-3β IC50

T1 sequence (P49841 whole entry, species assumed): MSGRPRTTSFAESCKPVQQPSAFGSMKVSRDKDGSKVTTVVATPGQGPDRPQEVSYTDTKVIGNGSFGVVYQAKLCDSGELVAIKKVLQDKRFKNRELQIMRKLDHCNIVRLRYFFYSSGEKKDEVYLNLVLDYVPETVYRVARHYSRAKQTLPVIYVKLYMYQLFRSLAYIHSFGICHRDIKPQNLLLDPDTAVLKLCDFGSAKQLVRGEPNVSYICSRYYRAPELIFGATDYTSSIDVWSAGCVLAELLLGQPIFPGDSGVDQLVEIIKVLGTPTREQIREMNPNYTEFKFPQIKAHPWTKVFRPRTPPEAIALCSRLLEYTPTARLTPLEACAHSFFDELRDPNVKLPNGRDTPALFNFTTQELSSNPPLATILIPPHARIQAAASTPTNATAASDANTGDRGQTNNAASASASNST

Compound	IC50 (GSK-3β; [1])	other results
3-(4-Ethyl-3-oxo-2-methyl-1,2,4-thiadiazolidin-5-ylidine)aminopyridine-1-oxide [Compound 23]	> 100 µM	–
3-[5-(4-Ethyl-2-methyl-3-oxo)imino-1,2,4-thiadiazolidyl]-1-methyl-pyridinium iodide [Compound 24]	> 100 µM	–
4-Ethyl-5-[imino-(1-methyl-piperidin-3-yl)]-2-methyl-1,2,4-thiadiazolidin-3-One [Compound 25]	> 100 µM	–
Cn1sc(=O)n(Cc2ccccc2)c1=O [Compound 1, 4-Benzyl-2-methyl-1,2,4-thiadiazolidine-3,5-dione]	–	IC50 (N2A cells; Mus musculus): 4 to 8 µM
O=C1NC(=O)c2ccccc21 [Compound 1-F]	> 100 µM	–
CCn1c(=O)sn(C)c1=O [Compound 2, 4-Ethyl-2-methyl-1,2,4-thiadiazolidine-3,5-dione]	5 µM	IC50 (N2A cells; Mus musculus): 40 to 100 µM
O=C1CCC(=O)N1Cc1ccccc1 [Compound 2-E]	> 100 µM	–
Cn1c(=O)n(-c2ccccc2)c(=O)n1C [Compound 2-H]	> 100 µM	–
O=C1C=CC(=O)N1CCc1ccccc1 [Compound 4-D, N-phenethylmaleimide]	–	IC50 (GSK-3β; [2]): 2 µM
O=C1C=CC(=O)N1CCCc1ccccc1 [Compound 5-D, N-(3-phenylpropyl)maleimide]	–	melting point: 79 to 80 °C
O=C1CSC(=S)N1CCc1ccccc1 [Compound 5-G, 3-Phenethyl-2-thioxo-thiazolidin-4-One]	35 µM	–
O=C1C=CC(=O)N1CCCCCc1ccccc1 [Compound 6-D, N-(5-phenylpentyl)maleimide]	–	melting point: 49 to 51 °C
COc1ccc(-n2c(=O)sn(C)c2=O)cc1 [Compound 7, 4-(4-Methoxyphenyl)-2-methyl-1,2,4-thiadiazolidine-3,5-dione]	–	IC50 (N2A cells; Mus musculus): 1 to 2 µM
COc1ccc(CN2C(=O)C=CC2=O)cc1 [Compound 7-D, N-(p-methoxybenzyl)maleimide]	–	IC50 (GSK-3β; [2]): 2.5 µM
NN1C(=O)CSC1=S [Compound 7-G]	–	IC50 (GSK-3β; [2]): > 100 µM
COc1ccc(CCN2C(=O)C=CC2=O)cc1 [Compound 8-D, N-(p-Methoxyphenethyl)maleimide]	–	melting point: 79 to 81 °C
CCn1c(=O)sn(C(C)C)c1=O [Compound 9, 4-Ethyl-2-isopropyl-1,2,4-thiadiazolidin-3,5-dione]	35 µM	–
O=c1sn(-c2ccccc2)c(=S)n1-c1ccccc1 [Compound 12, 2,4-diphenyl-5-oxo-thiadiazolidine-3-thione]	20 µM	IC50 (N2A cells): 4 to 8 µM
CCn1sc(=O)n(CC)c1=O [Compound 13, 2,4-diethyl-5-oxo-1,2,4-thiadiazolidine-3,5-dione]	20 µM	–
Cn1sc(=O)n(-c2ccc(Cl)cc2)c1=O [Compound 18, 4-(4-Chlorophenyl)-2-methyl-1,2,4-thiadiazolidine-3,5-dione]	4 µM	–
O=C(c1ccccc1)n1sc(=O)n(Cc2ccccc2)c1=O [Compound 31, 2-Benzoyl-4-benzyl-1,2,4-thiadiazolidine-3,5-dione]	3 µM	–
CCOC(=O)Cn1sc(=O)n(Cc2ccccc2)c1=O [Compound 33, 4-Benzyl-2-(Ethoxycarbonylmethyl)-1,2,4-thiadiazolidine-3,5-dione]	4 µM	–
CCOC(=O)Cn1sc(=O)n(CC(=O)OCC)c1=O [Compound 44, 4-(Ethoxycarbonylmethyl)-2-(ethoxycarbonylmethyl)-1,2,4-thiadiazolidine-3,5-dione]	4 µM	–
CCn1sc(=O)n(-c2ccc([N+](=O)[O-])cc2)c1=O [Compound 49, 2-Ethyl-4-(4-nitrophenyl)-1,2,4-thiadiazolidine-3,5-dione]	8.5 µM	–
CCn1sc(=NO)n(-c2ccccc2)c1=O [Compound 50, 2-Ethyl-4-phenyl-1,2,4-thiadiazolidine-3-one-5-oxime]	100 µM	–

Second part, led by results:

IC50 (GSK-3β; [1])	Compound	other results
> 100 µM	O=C1CCC(=O)C1 [Compound 1-A]	–
12 µM	O=C1C=CC(=O)C1 [Compound 1-B]	–
> 100 µM	O=C1c2ccccc2C(=O)N1Cc1ccccc1 [Compound 2-F]	–
10 µM	CCCn1sc(=O)n(CC)c1=O [Compound 3, 4-Ethyl-2-n-propyl-1,2,4-thiadiazolidine-3,5-dione]	IC50 (N2A cells; Mus musculus): 5 to 10 µM
> 100 µM	O=C(O)CN1C(=O)CSC1=S [Compound 3-G, (4-oxo-2-thioxo-thiazolidin-3-yl)-acetic acid]	–
10 µM	CCn1c(=O)sn(C2CCCCC2)c1=O [Compound 4, 2-Cyclohexyl-4-ethyl-1,2,4-thiadiazolidine-3,5-dione]	IC50 (N2A cells; Mus musculus): 6 to 9 µM
2 µM	Cn1sc(=O)n(-c2ccccc2)c1=O [Compound 5, 4-Phenyl-2-methyl-1,2,4-thiadiazolidin-3,5-dione]	IC50 (N2A cells; Mus musculus): 4 to 7 µM
5 µM	CCOC(=O)Cn1c(=O)sn(C)c1=O [Compound 6, 4-(Ethoxycarbonylmethyl)-2-methyl-1,2,4-thiadiazolidine-3,5-dione]	IC50 (N2A cells; Mus musculus): 1 to 2 µM
50 µM	O=C(CN1C(=O)CSC1=S)c1ccccc1 [Compound 6-G, 3-Phenacyl-2-thioxo-thiazolidin-4-One]	–
7 µM	CCn1sc(=O)n(Cc2ccccc2)c1=O [Compound 8, 4-Benzyl-2-ethyl-1,2,4-thiadiazolidine-3,5-dione]	IC50 (N2A cells; Mus musculus): 4 to 7 µM
6 µM	CCn1sc(=O)n(Cc2ccccc2)c1=S [Compound 10, 4-Benzyl-2-ethyl-5-oxo-1,2,4-thiadiazolidine-3-thione]	–
10 µM	O=c1sn(Cc2ccccc2)c(=S)n1Cc1ccccc1 [Compound 11, 2,4-Dibenzyl-5-oxo-thiadiazolidine-3-thione]	IC50 (N2A cells): 1 to 2 µM
5 µM	Cc1ccc(-n2c(=O)sn(C)c2=O)cc1 [Compound 15, 4-(4-Methylphenyl)-2-methyl-1,2,4-thiadiazolidine-3,5-dione]	–
3 µM	Cn1sc(=O)n(-c2ccc(Br)cc2)c1=O [Compound 16, 4-(4-Bromophenyl)-2-methyl-1,2,4-thiadiazolidine-3,5-dione]	–
4 µM	Cn1sc(=O)n(-c2ccc(F)cc2)c1=O [Compound 17, 4-(4-Fluorophenyl)-2-methyl-1,2,4-thiadiazolidine-3,5-dione]	–
6 µM	CCn1sc(=NO)n(Cc2ccccc2)c1=O [Compound 36, 4-Benzyl-2-ethyl-1,2,4-thiadiazolidine-3-one-5-oxime]	–
8 µM	CCn1sc(=O)n(CCc2ccccc2)c1=O [Compound 41, 2-Ethyl-4-phenethyl-1,2,4-thiadiazolidine-3,5-dione]	–
50 µM	O=c1[nH]sc(=O)n1Cc1ccccc1 [Compound 42, 4-Benzyl-1,2,4-thiadiazolidine-3,5-dione]	–
2 µM	CCOC(=O)Cn1c(=O)sn(C)c1=O [Compound 45, 4-(Ethoxycarbonylmethyl)-2-methyl-1,2,4-thiadiazolidine-3,5-dione]	–
7 µM	CCOC(=O)Cn1c(=O)sn(C(C)C)c1=O [Compound 46, 4-(Ethoxycarbonylmethyl)-2-isopropyl-1,2,4-thiadiazolidine-3,5-dione]	–
4 µM	CCOC(=O)Cn1c(=O)sn(C(=O)c2ccccc2)c1=O [Compound 47, 2-Benzoyl-4-(ethoxycarbonylmethyl)-1,2,4-thiadiazolidine-3,5-dione]	–
